{"source": "patent US5187086A", "about": "“Molecules with antibody combining sites that catalyze hydrolysis reactions through use of a charged hapten” (Scripps Clinic and Research Foundation, priority 1991, dated 1993)", "type_in_all_cases": "biochemical, mouse (129G1X)", "key": {"[1]": {"test_system": "monoclonal antibody 30C6 (hybridoma 30C6, ATCC HB 10341), IgG induced by haptenic ligand Compound 1a", "assay": "Hydrolysis of benzoate ester Compound 3 catalyzed by monoclonal antibody 30C6 (HPLC assay, Michaelis-Menten kinetics)", "protocol": "Monoclonal antibodies at a concentration of 20 μM were initially screened (phosphate buffer 50 mM, pH 7.5, 100 mM NaCl, 37° degrees C.) against benzoate ester reactant ligand Compound 3, ([…]) for the production of 5-[[4-(hydroxy)phenyl]aming]-5-oxo-pentanoic acid, Compound 4. [Analysis was performed via HPLC on an RP-C18 column eluting with water: acetonitrile (op:10) at a flow of 1 ml/min with UV detector set to 254 nm. The hydrolysis product, Compound 4 (FIG. 1; retention time 7 minutes) was collected (recovered) an found to be identical by RP-HPLC coinjection and mass spectral analysis with an authentic sample.]\nThe pH dependence of the hydrolysis of substrate Compound 3 was examined in the presence of monoclonal antibodies 30C6 (20 μM) between pH 6.0 and 7.2 (Bis-tris) and 7.2-8.0 (phosphate), both at 50 mM buffer and 100 mM NaCl, 37° degrees C. (FIG. 2)."}, "[2]": {"test_system": "monoclonal receptor (antibody) 27A6 (hybridoma 27A6, ATCC HB 10621), IgG induced by hapten Compound 5a", "assay": "Hydrolysis of benzoate ester Compound 3 catalyzed by monoclonal receptor 27A6 (HPLC assay, Michaelis-Menten kinetics)", "protocol": "That monoclonal receptor is also referred to as receptor or antibody 27A6.\nPurified monoclonal antibodies were dialyzed against EPPS buffer (I mM, pH 8.0, 100 mM NaCl) or CHES buffer (1 mM, pH 8.0, 100 mM NaCl). Its protein concentration was determined by the BCA method (Pierce). Assays were performed by HPLC (reverse-phase column, C18, VYDAC 201Tp54) with C3 CN/H2 O (0.1 percent TFA) on an isocratic program of 10/90. An internal standard of o-acetamidophenol was used to calculate the amount of product formed [4-(carboxybutyramido)phenol].\nReactions contained 5 percent cosolvent dioxane, and the temperature was maintained at 37°±0.1°degrees C. Initial linear rates were measured at<5 percent hydrolysis of the total substrate. […] Kinetic parameters Vmax Km were determined by nonlinear least-squares fitting of the initial rate vs. substrate concentration to a hyperbolic curve described by the Michaelis-Menten equation."}, "[3]": {"test_system": "monoclonal receptor (antibody) 27A6 (hybridoma 27A6, ATCC HB 10621), IgG induced by hapten Compound 5a", "assay": "Chemical modification of antibody 27A6, then assay of catalytic (esterolytic) activity by HPLC", "protocol": "The esterolytic activity of monoclonal receptor 27A6 was unaffected by treatment with diethyl pyrocarbonate or maleic anhydride in fifty-fold molar excess to protein.\n(a) Phenylglyoxal; a 50 μl aliquot of a phenylglyoxal solution (6 mM), (125 mM NaHCO3, pH 7.5) was added to buffer 195 μl (125 mM, pH 7.5 NaHCO3), containing antibody (20 μM). The mixture was vortexed and left to stand for one hour at room temperature. This reaction mixture was then transferred to a microdialyzer (Pierce) and dialyzed with 125 mM, pH 7.5 NaHCO3 with a flow through of approximately 150 ml/hour for two hours. The microdialyzer was then flushed with 4×60 ml portions of pH 8.4, 50 mM CHES, 100 mM NaCl and left to stand in this buffer overnight (about 15-18 hours). The microdialyzer was again flushed 3×50 ml portions of pH 8.4, 50 mM CHES, 100 mM NaCl the next morning. Samples were removed, protein concentrations recalculated (BCA) and assays run for catalytic activity (HPLC) or binding (ELISA). A similar procedure was used with hapten present (200 μM).\n(b) Maleic anhydride; a […] aliquot of a maleic anhydride solution (0.06 M, dioxane) was added to 299 μl of 20 mM, pH 8.9 borate, 100 mM NaCl containing 20 μM of antibody. The solution was vortexed and left to stand at room temperature for one hour. This reaction mixture was then transferred to a microdialyzer and dialyzed as described above with 50 mM CHES, pH 8.4, 100 mM NaCl. Samples were removed, protein concentrations calculated (BCA), and assays run for catalytic activity or binding.\n(c) Diethyl pyrocarbonate; 10 μl of a 0.6 M diethylpyrocarbonate solution in ethanol was diluted into 1 ml of sodium acetate (NaOAc) (150 mM, pH 6, 100 mM NaCl). Five microliters of that solution were added to 299 μl of NaOAc (150 mM, pH 6.0, 100 mM NaCl) containing 20 µM of antibody. The mixture was vortexed and left to stand at 4° degrees C. overnight (about 15-18 hours). This reaction mixture was then transferred to a microdialyzer and dialyzed as described above with CHES (50 mM, pH 8.4, 100 mM NaCl). Samples were removed, protein concentrations determined (BCA) and assays performed for catalytic activity and binding."}, "[4]": {"test_system": "the three catalytic monoclonal antibodies obtained to hapten Compound 5a", "assay": "HPLC screen of hydrolysis of Compound 3 by catalytic antibodies, inhibition by free hapten", "details": "50 μM inhibitor; antibody 20 μM, Compound 3 500 μM, phosphate 50 mM, pH 7.5, 100 mM NaCl, 37 degrees C", "protocol": "Antibodies at a concentration of 20μM were initially screened (phosphate buffer, 50 mM, pH 7.5, 100 mM NaCl, 37° degrees C.) via an HPLC assay against benzoate ester Compound 3, (500 μM) for the production of 5-[(4-hydroxyphenyl)aming]-5-oxopentanoic acid, Compound 4."}, "[5]": {"details": "hydrolysis of Compound 3, 50 mM phosphate, 100 mM NaCl, pH 7.2, 37 degrees C, antibody 20 μM"}, "[6]": {"details": "treatment with reagent in fifty-fold molar excess to protein"}}, "data": [{"smiles": "O=C(O)CCCC(=O)Nc1ccc(OC(=O)c2ccccc2)cc1", "note": "[Compound 3]", "values": [{"measurement": "Kcat^app", "setting": "[1]; [5]", "result": "5±0.2×10^-3 min^-1"}, {"measurement": "Km", "setting": "[1]; [5]", "result": "1120 ± 50", "unit": "µM"}, {"measurement": "ratio of kcat/ko (rate acceleration by the antibody over hydrolysis in water)", "setting": "[1]; pH independent antibody-catalyzed rate vs hydrolysis of Compound 3 in water", "result": "over a million fold"}, {"measurement": "Kcat^app", "setting": "[2]; hydrolysis of Compound 3, 50 mM EPPS, 100 mM NaCl, pH 8.5, 37 degrees C", "result": "0.00017 ± 3.3e-05", "unit": "s⁻¹"}]}, {"smiles": "O=CC(=O)c1ccccc1", "note": "[phenylglyoxal]", "values": [{"measurement": "loss of catalytic activity in the presence of inhibitor Compound 5b", "setting": "[3]; reagent in fifty-fold molar excess, Compound 5b five-fold molar excess to protein", "result": 35, "unit": "%"}, {"measurement": "loss of catalytic activity", "setting": "[3]; [6]", "result": 75, "unit": "%"}]}, {"smiles": "O=C1C=CC(=O)O1", "note": "[maleic anhydride]", "values": [{"measurement": "esterolytic activity after treatment", "setting": "[3]; [6]", "result": "unaffected"}]}, {"smiles": "Nc1ccc(CC(O)c2ccccc2C(=O)O)cc1", "note": "(stereo not shown) [Compound 5b]", "values": [{"measurement": "Ki", "setting": "[2]; competitive inhibitor, substrate Compound 3, read-out: K (competitive inhibition of the antibody-catalyzed hydrolysis of Compound 3)", "result": "6 ± 2", "unit": "µM"}, {"measurement": "inhibition of catalysis", "setting": "[4]", "result": "completely inhibited"}]}, {"smiles": "CCOC(=O)OC(=O)OCC", "note": "[diethyl pyrocarbonate]", "values": [{"measurement": "esterolytic activity after treatment", "setting": "[3]; [6]", "result": "unaffected"}]}]}
